Experimental data: US10906888B2, “Pyrimidine carboxamides as inhibitors of Vanin-1 enzyme” (Pfizer Inc., priority 2016, dated 2021)

Assays:
human vanin-1 = human vanin-1 (Homo sapiens (Human), UniProt O95497); assay: Human Vanin-1 Enzyme Assay 1; format: biochemical; conditions: 25 pM human vanin-1, 50 uM pantetheine 7-amino-4-trifluoromethylcoumarin substrate
[1] = target: human vanin-1 present in human plasma (Homo sapiens (Human), UniProt O95497); assay: Vanin-1 in Human Plasma Assay; format: biochemical; conditions: 50% pooled human plasma, 50 uM substrate
Procedure: Vanin-1 in Human Plasma Assay.
The in vitro assay measures enzymatic cleavage of the fluorescently-labeled vanin substrate, pantetheine 7-amino-4-trifluoromethylcoumarin, by human vanin-1 present in human plasma.
Human plasma was prepared from whole blood drawn from healthy donors, collected in tubes containing sodium heparin. The plasma fractions were separated from the whole blood by centrifugation for 10 minutes at 2000×g and pooled.
The test inhibitors were solubilized in DMSO to a stock concentration of 30 mM. On the day of the assay, dose response plates were prepared by diluting the inhibitors in DMSO to a compound concentration 200-fold the final in-assay concentration. Concentration series were prepared by serially diluting in 100% DMSO in a three-fold series. […] From this intermediate compound plate, 10 μL were transferred to the assay plate and mixed with 20 uL of the pooled human plasma. The inhibitor and enzyme were co-incubated at room temperature for 30 minutes. The enzyme reaction was initiated by the addition of 10 μL of 200 uM pantetheine 7-amino-4-trifluoromethylcoumarin prepared in assay buffer. The final concentrations in the assay were 50% plasma, and 50 uM substrate. The final concentration of DMSO was 0.5%. Datapoints were measured over time using a Tecan Safire 2 platereader at 405 nm excitation wavelength and a 510 nm emission wavelength for detection.

Sequence of human vanin-1 present in human plasma (O95497 22-491): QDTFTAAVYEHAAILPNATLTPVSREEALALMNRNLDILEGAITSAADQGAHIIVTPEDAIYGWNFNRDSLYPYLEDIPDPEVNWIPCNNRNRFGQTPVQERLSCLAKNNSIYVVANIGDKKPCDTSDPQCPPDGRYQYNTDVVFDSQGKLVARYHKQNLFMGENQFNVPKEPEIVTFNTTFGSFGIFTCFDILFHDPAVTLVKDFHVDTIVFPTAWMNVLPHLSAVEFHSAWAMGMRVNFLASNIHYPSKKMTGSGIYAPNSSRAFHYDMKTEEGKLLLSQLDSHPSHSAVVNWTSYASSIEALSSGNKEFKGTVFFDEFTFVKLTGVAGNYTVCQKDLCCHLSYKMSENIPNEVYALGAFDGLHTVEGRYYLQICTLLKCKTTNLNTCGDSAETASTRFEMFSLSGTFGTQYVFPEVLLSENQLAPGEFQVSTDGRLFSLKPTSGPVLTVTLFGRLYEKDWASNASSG
Sequence of human vanin-1 (O95497 22-491): as above

| SMILES | IC50 (human vanin-1) | IC50 [1] |
| --- | --- | --- |
| Cc1ncc(CNc2ncc(C(=O)N3CCC4(CCOCC4)C3)cn2)cn1 [Example 170] | 6.33 nM | 16.5 nM |
| CC(Nc1ncc(C(=O)N2CC3(CCOCC3)C2)cn1)c1cncnc1 (stereo not shown) [Example 184] | 1.45 nM | 2.21 nM |
| O=C(c1cnc(NC2(c3cnccn3)CC2)nc1)N1CC2(CCOCC2)C1 [Example 158] | 1.11 nM | 2.03 nM |
| N#CC1CCCN(C(=O)c2cnc(NC3(c4cncnc4)CC3)nc2)C1 (single isomer, unassigned) [Example 196] | 1180 nM | > 793 nM |
| CC(C)(Nc1ncc(C(=O)N2CC3(CCOCC3)C2)cn1)c1cnccn1 [Example 131, 7-oxa-2-azaspiro[3.5]non-2-yl(2-{[2-(pyrazin-2-yl)propan-2-yl]amino}pyrimidin-5-yl)methanone] | < 0.094 nM | 0.838 nM |
| O=C(c1cnc(NC2(c3cncnc3)CCC2)nc1)N1CC2(CCOCC2)C1 [Example 174] | 0.293 nM | 0.905 nM |
| O=C(c1cnc(NC2(c3cncnc3)COC2)nc1)N1CCC2(CCOCC2)C1 [Example 133] | 0.43 nM | 0.524 nM |
| O=C(c1cnc(NCc2cnccn2)nc1)N1CC2(CCOCC2)C1 [Example 135] | 3.38 nM | 3.7 nM |
